Assay results: patent US20110045477A1, “HUMAN SKIN EXPLANT CULTURE SYSTEM AND USE THEREFOR” (priority 2009, published 2011)

How the values were obtained:
[1] = system: subcutaneous adipose layer of skin explants; assay: Lipogenesis: triglyceride synthesis from C-14 acetate in subcutaneous fat of skin explants (HPTLC); assay type: cell-based, human; details: 20 μM in medium, untreated control 100%
Experimental: (§1) To examine the metabolic activity of the subcutaneous adipose layer, explant cultures were established as described in Example 1, using optimized media with 5% serum. After overnight incubation, skin explants remained untreated or were treated with 20 μM of rosiglitazone or with 50 μM of conjugated linoleic acid in the media, for the evaluation of their effect on lipogenesis and lipolysis of subcutaneous adipose layer. Explants were incubated at 37° C. in a 5% CO2 atmosphere.
For assessing lipogenesis, skin explants were cultured in medium containing 20 μM of rosiglitazone and C-14 labeled acetate for 24 hours. Subcutaneous fat was then harvested, and the levels of triglyceride were determined by HPTLC as described in (Pappas et al., JID 118 (1) 164-171, 2002).

human skin explants [2] = assay: LUNA staining of elastin fibers in skin explants; assay type: cell-based; details: 20 ng/ml in Medium 1, 37° C., grade 1-5, 5 = best fiber quality
Experimental: (§2) Skin explant cultures were established as described in Example 1, using Medium 1. Explants were incubated at 37° C. in a 5% CO2 atmosphere. Skin explants either remained untreated or were treated, in Medium 1, with TGF-β, an agent known to increase elastin production. Media were refreshed daily. After predetermined time periods, the skin explants were harvested, and processed for histological, immunohistochemical, and gene expression evaluation as follows. • 1. LUNA staining was used to document elastin fibers histologically, as described in Kligman, Am. J. of Dermatopathology, 3(2): 199-201, 1981. The grading of elastin fiber quality ranged from 1-5, when 5 represented best fiber quality. • 2. Ki67 was used as a marker for cell proliferation, using immunohistochemistry techniques with a rabbit monoclonal antibody for Ki67, purchased from Thermo Scientific (Pittsburgh, Pa.). Immunohistochemistry staining was performed according to manufacturer's instructions. The grading of Ki67 ranged from 1-5, when 5 represented normal Ki67 level in the skin sample prior to culture. • 3. Levels of elastin gene expression (mRNA levels) were evaluated by QPCR. Total RNA was extracted from skin explants using Trizol (Invitrogen, Carlsbad Calif.) according to manufacturer's instructions. […]

human skin explants [3] = assay: Ki67 immunohistochemistry (cell proliferation marker) in skin explants; assay type: cell-based; details: 20 ng/ml in Medium 1, 37° C., grade 1-5, 5 = normal level prior to culture
Experimental: as §2

elastin gene expression = assay: Elastin gene expression (mRNA) by QPCR in skin explants; assay type: cell-based, human; details: 20 ng/ml
Experimental: as §2

[4] = system: subcutaneous adipose layer of skin explants; assay: Lipolysis: glycerol released into culture media of skin explants; assay type: cell-based, human; details: 50 μM in medium, untreated control 100%
Experimental: as §1
For evaluating lipolysis, skin explants were cultured in medium containing 50 μM of conjugated linoleic acid, and culture media were collected at indicated time points. The levels of glycerol released into the media were determined using the free glycerol reagent and kit (Sigma), which was used according to manufacture instruction.

CN(CCOc1ccc(CC2SC(=O)NC2=O)cc1)c1ccccn1 (centres unmarked) [Rosiglitazone, rosiglitazone]
Triglyceride synthesis at 24 hr (lipogenesis) [1]: 240-270%

TGF-β
LUNA staining Elastin fibers (grade) (human skin explants [2]; Day 5): 3
LUNA staining Elastin fibers (grade) (human skin explants [2]; Day 7): 4
Ki67 Proliferation marker (grade) (human skin explants [3]; Day 5): 4
Ki67 Proliferation marker (grade) (human skin explants [3]; Day 7): 4
Elastin mRNA (QPCR) (elastin gene expression; Day 5, untreated control normalized to 100%): 369%
Elastin mRNA (QPCR) (elastin gene expression; Day 7, untreated control Day 5 = 100% (Day 7 control 243%)): 423%

conjugated linoleic acid
Glyceral release at day 3 (lipolysis) [4]: 140%
